Test results published in ChEMBL document CHEMBL3585308, “Discovery and Modification of in Vivo Active Nrf2 Activators with 1,2,4-Oxadiazole Core: Hits Identification and Structure-Activity Relationship Study” (J Med Chem, 2015).
≈ marks a conversion by molar mass, not a printed value. Calls of active or inactive are those of the source. The calls are words filed in the database; no cut-off is given here.

Legend:
[1] = test system: Mus musculus; assay: In vivo activation of Nrf2 in LPS-stimulated ip dosed C57BL/6 mouse lung pretreated for 48 hrs followed by LPS challenge measured after 5 hrs by Western blot analysis; type: functional, organism-based
[2] = test system: Mus musculus; assay: Antiinflammatory activity in ip dosed C57BL/6 mouse assessed as reduction of LPS-induced TNF-alpha level in serum pretreated for 48 hrs followed by LPS challenge measured after 5 hrs by ELISA relative to LPS-treated control; type: functional, organism-based
[3] = test system: HCT-116; assay: Cytotoxicity against human HCT116 cells assessed as reduction of cell proliferation at 80 uM after 24 hrs by MTT assay; type: cell-based; conditions: hct-116, 24 h
[4] = target: T1, Nuclear factor erythroid 2-related factor 2 (Homo sapiens) (UniProt Q16236); assay: Activation of Nrf2 in human HCT116 cells assessed as upregulation of GCS expression at 10 uM after 1 hr by Western blot analysis; type: cell-based; conditions: HCT-116
T1 sequence (whole entry): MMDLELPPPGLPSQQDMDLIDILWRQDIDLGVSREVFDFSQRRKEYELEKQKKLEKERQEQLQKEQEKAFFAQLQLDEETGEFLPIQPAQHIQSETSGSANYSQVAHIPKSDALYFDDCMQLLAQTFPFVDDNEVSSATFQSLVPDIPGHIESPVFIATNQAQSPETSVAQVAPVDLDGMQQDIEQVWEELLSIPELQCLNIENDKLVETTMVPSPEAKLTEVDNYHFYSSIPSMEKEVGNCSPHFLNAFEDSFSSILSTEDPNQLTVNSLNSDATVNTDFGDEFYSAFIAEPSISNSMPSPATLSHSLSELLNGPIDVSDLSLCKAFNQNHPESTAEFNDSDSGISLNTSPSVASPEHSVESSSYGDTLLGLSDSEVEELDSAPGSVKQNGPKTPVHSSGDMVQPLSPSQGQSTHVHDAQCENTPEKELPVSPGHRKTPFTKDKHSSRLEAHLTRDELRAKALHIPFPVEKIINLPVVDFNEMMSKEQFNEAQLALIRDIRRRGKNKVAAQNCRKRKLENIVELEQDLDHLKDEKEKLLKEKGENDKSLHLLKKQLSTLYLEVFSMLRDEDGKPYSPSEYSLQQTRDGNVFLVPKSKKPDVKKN

[5] = target: T1, Nuclear factor erythroid 2-related factor 2 (Homo sapiens); assay: Induction of phosphorylated Nrf2 at S40 translocation from cytoplasm to nucleus in human HCT116 cells at 20 uM after 4 hrs by Western blot analysis; type: cell-based; conditions: HCT-116
[6] = test system: Mus musculus; assay: Antiinflammatory activity in ip dosed C57BL/6 mouse assessed as reduction of LPS-induced IL-17 level in serum pretreated for 48 hrs followed by LPS challenge measured after 5 hrs by ELISA relative to LPS-treated control; type: functional, organism-based
[7] = target: T1, Nuclear factor erythroid 2-related factor 2 (Homo sapiens); assay: Induction of Nrf2 phosphorylation at S40 in cytoplasm of human HCT116 cells at 20 uM after 4 hrs by Western blot analysis; type: cell-based; conditions: HCT-116
[8] = target: T1, Nuclear factor erythroid 2-related factor 2 (Homo sapiens); assay: Activation of Nrf2 in human HCT116 cells assessed as upregulation of HO-1 expression after 8 hrs by Western blot analysis; type: cell-based; conditions: HCT-116
[9] = test system: Mus musculus; assay: Antiinflammatory activity in ip dosed C57BL/6 mouse assessed as inhibition of LPS-induced IL-6 expression in lung pretreated for 48 hrs followed by LPS challenge measured after 5 hrs by immunohistochemical analysis; type: functional, organism-based
[10] = Dissociation constant, pKa of the compound by potentiometric titration method; type: physicochemical
[11] = target: T1, Nuclear factor erythroid 2-related factor 2 (Homo sapiens); assay: Induction of Nrf2 translocation from cytoplasm to nucleus in human HCT116 cells after 12 hrs by DyLight 488 and DAPI staining-based laser scanning confocal microscopic analysis; type: cell-based; conditions: HCT-116
[12] = target: T1, Nuclear factor erythroid 2-related factor 2 (Homo sapiens); assay: Activation of Nrf2 in human HCT116 cells measured at 4 hrs by qRT-PCR analysis; type: cell-based; conditions: HCT-116
[13] = target: T1, Nuclear factor erythroid 2-related factor 2 (Homo sapiens); assay: Activation of Nrf2 in human HCT116 cells assessed as upregulation of GCLM gene expression at 20 uM after 8 hrs by qRT-PCR analysis in presence of siRNA relative to siRNA nontreated control; type: cell-based; conditions: HCT-116
[14] = Permeability of the compound at pH 7.4 by PAMPA; type: physicochemical; conditions: read-out: permeability
[15] = test system: Mus musculus; assay: In vivo activation of Nrf2 in LPS-stimulated C57BL/6 mouse lung at 10 to 80 mg/kg/day, ip pretreated for 48 hrs followed by LPS challenge measured after 5 hrs by DAPI staining-based laser scanning confocal microscopic analysis; type: functional, organism-based
[16] = test system: Mus musculus; assay: Antiinflammatory activity in ip dosed C57BL/6 mouse assessed as reduction of LPS-induced IL-6 level in serum pretreated for 48 hrs followed by LPS challenge measured after 5 hrs by ELISA relative to LPS-treated control; type: functional, organism-based
[17] = target: T1, Nuclear factor erythroid 2-related factor 2 (Homo sapiens); assay: Activation of Nrf2 in human HepG2-ARE-C8 cells assessed as upregulation of ARE level after 12 hrs by luciferase reporter gene assay; type: cell-based
[18] = target: T1, Nuclear factor erythroid 2-related factor 2 (Homo sapiens); assay: Activation of Nrf2 in human HCT116 cells assessed as upregulation of HO-1 gene expression measured at 4 hrs by qRT-PCR analysis; type: cell-based; conditions: HCT-116
[19] = target: T1, Nuclear factor erythroid 2-related factor 2 (Homo sapiens); assay: Induction of Nrf2 translocation from cytoplasm to nucleus in human HCT116 cells at 20 uM after 4 hrs by Western blot analysis; type: cell-based; conditions: HCT-116
[20] = test system: Mus musculus; assay: Antiinflammatory activity in C57BL/6 mouse assessed as prevention of LPS-induced morphological changes in lung at 10 to 80 mg/kg/day, ip pretreated for 48 hrs followed by LPS challenge measured after 5 hrs; type: functional, organism-based
[21] = Intrinsic aqueous solubility of the compound by potentiometric titration method; type: physicochemical; conditions: read-out: Intrinsic_solubility
[22] = test system: Mus musculus; assay: Toxicity in C57BL/6 mouse assessed as effect on body weight at 10 to 80 mg/kg/day, ip measured after 3 days; type: organism-based; conditions: in vivo, 72 h
[23] = target: T1, Nuclear factor erythroid 2-related factor 2 (Homo sapiens); assay: Activation of Nrf2 in human HCT116 cells at 20 uM after 8 hrs by qRT-PCR analysis in presence of siRNA relative to siRNA nontreated control; type: cell-based; conditions: HCT-116
[24] = Lipophilicity, log D of the compound at pH 7.4 by potentiometric titration method; type: physicochemical; conditions: buffer
[25] = target: T1, Nuclear factor erythroid 2-related factor 2 (Homo sapiens); assay: Activation of Nrf2 in human HCT116 cells assessed as upregulation of GCLM gene expression measured at 4 hrs by qRT-PCR analysis; type: cell-based; conditions: HCT-116
[26] = test system: Mus musculus; assay: Antiinflammatory activity in ip dosed C57BL/6 mouse assessed as reduction of LPS-induced IFN-gamma level in serum pretreated for 48 hrs followed by LPS challenge measured after 5 hrs by ELISA relative to LPS-treated control; type: functional, organism-based
[27] = target: T1, Nuclear factor erythroid 2-related factor 2 (Homo sapiens); assay: Activation of Nrf2 in human HCT116 cells assessed as upregulation of HO-1 gene expression at 20 uM after 8 hrs by qRT-PCR analysis in presence of siRNA relative to siRNA nontreated control; type: cell-based; conditions: HCT-116
[28] = test system: Mus musculus; assay: Antiinflammatory activity in ip dosed C57BL/6 mouse assessed as reduction of LPS-induced IL-12 level in serum pretreated for 48 hrs followed by LPS challenge measured after 5 hrs by ELISA relative to LPS-treated control; type: functional, organism-based
[29] = target: T1, Nuclear factor erythroid 2-related factor 2 (Homo sapiens); assay: Activation of Nrf2 in human HCT116 cells assessed as upregulation of NQO1 expression after 8 hrs by Western blot analysis; type: cell-based; conditions: HCT-116
[30] = target: T1, Nuclear factor erythroid 2-related factor 2 (Homo sapiens); assay: Activation of Nrf2 in human HCT116 cells assessed as upregulation of NQO1 gene expression measured at 4 hrs by qRT-PCR analysis; type: cell-based; conditions: HCT-116
[31] = target: T1, Nuclear factor erythroid 2-related factor 2 (Homo sapiens); assay: Activation of Nrf2 in human HCT116 cells assessed as upregulation of NQO1 gene expression at 20 uM after 8 hrs by qRT-PCR analysis in presence of siRNA relative to siRNA nontreated control; type: cell-based; conditions: HCT-116
[32] = test system: Mus musculus; assay: Toxicity in C57BL/6 mouse assessed as effect on body weight at 10 mg/kg/day measured after 3 days; type: organism-based; conditions: in vivo, 72 h
[33] = test system: Mus musculus; assay: Antiinflammatory activity in C57BL/6 mouse assessed as prevention of LPS-induced morphological changes in lung at 10 mg/kg/day pretreated for 48 hrs followed by LPS challenge measured after 5 hrs; type: functional, organism-based
[34] = test system: Mus musculus; assay: Antiinflammatory activity in C57BL/6 mouse assessed as reduction of LPS-induced IL-17 level in serum at 10 mg/kg/day pretreated for 48 hrs followed by LPS challenge measured after 5 hrs by ELISA; type: functional, organism-based
[35] = test system: Mus musculus; assay: Antiinflammatory activity in C57BL/6 mouse assessed as reduction of LPS-induced IFN-gamma level in serum at 10 mg/kg/day pretreated for 48 hrs followed by LPS challenge measured after 5 hrs by ELISA; type: functional, organism-based
[36] = test system: Mus musculus; assay: In vivo activation of Nrf2 in LPS-stimulated C57BL/6 mouse lung at 10 mg/kg/day pretreated for 48 hrs followed by LPS challenge measured after 5 hrs by DAPI staining-based laser scanning confocal microscopic analysis; type: functional, organism-based
[37] = test system: Mus musculus; assay: Antiinflammatory activity in C57BL/6 mouse assessed as reduction of LPS-induced IL-12 level in serum at 10 mg/kg/day pretreated for 48 hrs followed by LPS challenge measured after 5 hrs by ELISA; type: functional, organism-based
[38] = test system: Mus musculus; assay: Antiinflammatory activity in C57BL/6 mouse assessed as suppression of LPS-induced IL-6 expression in lung at 10 mg/kg/day pretreated for 48 hrs followed by LPS challenge measured after 5 hrs by immunohistochemical analysis; type: functional, organism-based
[39] = test system: Mus musculus; assay: Antiinflammatory activity in C57BL/6 mouse assessed as reduction of LPS-induced TNF-alpha level in serum at 10 mg/kg/day pretreated for 48 hrs followed by LPS challenge measured after 5 hrs by ELISA; type: functional, organism-based
[40] = test system: Mus musculus; assay: Antiinflammatory activity in C57BL/6 mouse assessed as reduction of LPS-induced IL-6 level in serum at 10 mg/kg/day pretreated for 48 hrs followed by LPS challenge measured after 5 hrs by ELISA; type: functional, organism-based

Structure (SMILES): Fc1ccc(-c2nc(-c3ccc4nc[nH]c4c3)no2)cc1
- Activity [1]: Dose-dependent effect
- Activity [2]: Dose-dependent effect
- Activity [3]: Non-toxic
- Activity [4]: Active
- Activity [5]: Active
- Activity [6]: Dose-dependent effect
- Activity [7]: Active
- Activity [8]: Dose-dependent effect
- inhibition [9]: Dose-dependent effect
- pKa [10]: 3.57
- Activity [11]: Dose-dependent effect
- Activity [12]: Dose-dependent effect
- Activity [13]: Active
- Papp [14]: 19.6 ×10⁻⁶ cm/s
- Activity [15]: Active
- Activity [16]: Dose-dependent effect
- Activity [17]: Dose-dependent effect
- Activity [18]: Dose-dependent effect
- Activity [19]: Active
- Activity [20]: Active
- solubility [21]: 66.9 µM (≈ 18.7 µg/mL)
- Activity [22]: Non-toxic
- Activity [23]: Active
- logD [24]: 3.37
- Activity [25]: Dose-dependent effect
- Activity [26]: Dose-dependent effect
- Activity [27]: Active
- Activity [28]: Dose-dependent effect
- Activity [29]: Dose-dependent effect
- Activity [30]: Dose-dependent effect
- Activity [31]: Active

Structure (SMILES): C[C@@H]1C[C@H]2[C@@H]3CCC4=CC(=O)C=C[C@]4(C)[C@@]3(F)[C@@H](O)C[C@]2(C)[C@@]1(O)C(=O)CO [DEXAMETHASONE]
- Activity [32]: Non-toxic
- Activity [33]: Active
- Activity [34]: Active
- Activity [35]: Active
- Activity [36]: Active
- Activity [37]: Active
- Activity [38]: Active
- Activity [39]: Active
- Activity [40]: Active
